# Columns and labels:
# Type in all cases: in vivo
# Galium spurium [1] = assay: Test Example 5: herbicidal effect by foliage application, plastic box (symbol Q); conditions: 320 g/ha, 3 weeks after application
# Procedure, shortened: (§1)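 Greenhouse foliar test: seedlings at 14 days, grown 25° C. to 30° C. in sterilized diluvial soil; compound applied as an aqueous dilution of an emulsion; response read 3 weeks after spraying.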
# Scirpus juncoides = assay: Test Example 1: herbicidal activity, application before weed generation in submerged conditions (symbol B); conditions: application herbicide amount 320 g/ha
# Procedure, shortened: (§2)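 Application before weed emergence: an aqueous dilution of the emulsion formulation was poured onto the surface of 4 cm-deep floodwater on the day of sowing. Effect was judged after 3 weeks (greenhouse, 25–30 °C).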
# Alopecurus myosuroides [2] = assay: Test Example 4: herbicidal effect by soil treatment (symbol J); conditions: 320 g/ha
# Procedure, shortened: (§3)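 Seeds were sown in sterilized diluvial soil, covered with about 1.5 cm of soil, and the soil surface was sprayed with a water-diluted emulsion of the compound at a predetermined rate. Plants grew in a greenhouse at 25° C. to 30° C.; effects were scored visually 3 weeks after application.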
# rice = assay: Test Example 4: effect on crop by soil treatment (symbol b); conditions: 320 g/ha
# Procedure, shortened: (§4)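 Diluvial soil (sterilized) in boxes; seeds placed spot-wise alongside weed species; ~1.5 cm covering soil. Greenhouse, 25–30° C.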
# Lolium multiflorum Lam. = assay: Test Example 5: herbicidal effect by foliage application, plastic box (symbol K); conditions: 320 g/ha, 3 weeks after application
# Procedure, shortened: as §1
# soybean = assay: Test Example 4: effect on crop by soil treatment (symbol d); conditions: 320 g/ha
# Procedure, shortened: as §4
# Setaria viridis = assay: Test Example 5: herbicidal effect by foliage application, plastic box (symbol G); conditions: 320 g/ha, 3 weeks after application
# Procedure, shortened: as §1
# Galium spurium [3] = assay: Test Example 4: herbicidal effect by soil treatment (symbol Q); conditions: 320 g/ha
# Procedure, shortened: as §3
# [4] = system: Echinochloa oryzacola Vasing.; assay: Test Example 1: herbicidal activity, application before weed generation in submerged conditions (symbol A); conditions: application herbicide amount 320 g/ha
# Procedure, shortened: as §2
# transplanted rice plant = assay: Test Example 1: effect on crop, application before weed generation in submerged conditions (symbol a); conditions: application herbicide amount 320 g/ha
# Procedure, shortened: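 Rice at 2.5 leaf stage transplanted into submerged soil (4 cm depth) sown with three weed species; herbicide applied before weed emergence.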
# wheat = assay: Test Example 4: effect on crop by soil treatment (symbol e); conditions: 320 g/ha
# Procedure, shortened: as §4
# Stellaria media = assay: Test Example 4: herbicidal effect by soil treatment (symbol P); conditions: 320 g/ha
# Procedure, shortened: as §3
# Alopecurus myosuroides [5] = assay: Test Example 5: herbicidal effect by foliage application, plastic box (symbol J); conditions: 320 g/ha, 3 weeks after application
# Procedure, shortened: as §1
# corn = assay: Test Example 4: effect on crop by soil treatment (symbol c); conditions: 320 g/ha
# Procedure, shortened: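 Soil-treatment setup: crop and weed seeds were spot-sown into sterilized diluvial soil, then buried beneath approximately 1.5 cm of it, and the boxes were housed in a 25–30° C. greenhouse.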
SMILES,"Q: Galium spurium, herbicidal effect (criteria 0-5) (Galium spurium [1])","Herbicidal effect grade, B: Scirpus juncoides (Scirpus juncoides)","J: Alopecurus myosuroides, herbicidal effect grade (Alopecurus myosuroides [2])","b: directly sowed rice plant, effect grade on crop (rice)","K: Lolium multiflorum Lam., herbicidal effect (criteria 0-5) (Lolium multiflorum Lam.)","d: soybean, effect grade on crop (soybean)","G: Setaria viridis, herbicidal effect (criteria 0-5) (Setaria viridis)","Q: Galium spurium, herbicidal effect grade (Galium spurium [3])","Herbicidal effect grade, A: Echinochloa oryzacola Vasing. [4]","Effect grade on crop, a: transplanted rice plant (transplanted rice plant)","e: wheat, effect grade on crop (wheat)","P: Stellaria media, herbicidal effect grade (Stellaria media)","J: Alopecurus myosuroides, herbicidal effect (criteria 0-5) (Alopecurus myosuroides [5])","c: corn, effect grade on crop (corn)"
CON=C(C)CC1CC(OS(=O)(=O)CC[Si](C)(C)C)=C(c2c(C)cc(C)cc2C)C1=O (stereo not shown) [1-144],2 (Herbicidal ratio of 20% or higher and lower than 40%),5 (Herbicidal ratio of 90% or more (almost completely withered)),4 (Herbicidal ratio of 70% or higher and lower than 90%),5 (Herbicidal ratio of 90% or more (almost completely withered)),5 (Herbicidal ratio of 90% or more (almost completely withered)),0 (Herbicidal ratio of 5% or lower (almost no effect)),5 (Herbicidal ratio of 90% or more (almost completely withered)),0 (Herbicidal ratio of 5% or lower (almost no effect)),5 (Herbicidal ratio of 90% or more (almost completely withered)),5 (Herbicidal ratio of 90% or more (almost completely withered)),0 (Herbicidal ratio of 5% or lower (almost no effect)),0 (Herbicidal ratio of 5% or lower (almost no effect)),5 (Herbicidal ratio of 90% or more (almost completely withered)),3 (Herbicidal ratio of 40% or higher and lower than 70%)
CON=C(C)CC1CC(OC(=O)OCc2ccccc2)=C(c2c(C)cc(C)cc2C)C1=O (stereo not shown) [1-145],2 (Herbicidal ratio of 20% or higher and lower than 40%),5 (Herbicidal ratio of 90% or more (almost completely withered)),5 (Herbicidal ratio of 90% or more (almost completely withered)),5 (Herbicidal ratio of 90% or more (almost completely withered)),5 (Herbicidal ratio of 90% or more (almost completely withered)),0 (Herbicidal ratio of 5% or lower (almost no effect)),5 (Herbicidal ratio of 90% or more (almost completely withered)),0 (Herbicidal ratio of 5% or lower (almost no effect)),5 (Herbicidal ratio of 90% or more (almost completely withered)),5 (Herbicidal ratio of 90% or more (almost completely withered)),5 (Herbicidal ratio of 90% or more (almost completely withered)),3 (Herbicidal ratio of 40% or higher and lower than 70%),5 (Herbicidal ratio of 90% or more (almost completely withered)),5 (Herbicidal ratio of 90% or more (almost completely withered))
C=CCOC(=O)OC1=C(c2c(C)cc(C)cc2C)C(=O)C(CC(C)=NOC)C1 (stereo not shown) [1-146],3 (Herbicidal ratio of 40% or higher and lower than 70%),5 (Herbicidal ratio of 90% or more (almost completely withered)),5 (Herbicidal ratio of 90% or more (almost completely withered)),5 (Herbicidal ratio of 90% or more (almost completely withered)),5 (Herbicidal ratio of 90% or more (almost completely withered)),0 (Herbicidal ratio of 5% or lower (almost no effect)),5 (Herbicidal ratio of 90% or more (almost completely withered)),0 (Herbicidal ratio of 5% or lower (almost no effect)),5 (Herbicidal ratio of 90% or more (almost completely withered)),5 (Herbicidal ratio of 90% or more (almost completely withered)),5 (Herbicidal ratio of 90% or more (almost completely withered)),1 (Herbicidal ratio of 5% or higher and lower than 20%),5 (Herbicidal ratio of 90% or more (almost completely withered)),1 (Herbicidal ratio of 5% or higher and lower than 20%)
COCCOC(=O)OC1=C(c2c(C)cc(C)cc2C)C(=O)C(CC(C)=NOC)C1 (stereo not shown) [1-147],4 (Herbicidal ratio of 70% or higher and lower than 90%),5 (Herbicidal ratio of 90% or more (almost completely withered)),5 (Herbicidal ratio of 90% or more (almost completely withered)),5 (Herbicidal ratio of 90% or more (almost completely withered)),5 (Herbicidal ratio of 90% or more (almost completely withered)),0 (Herbicidal ratio of 5% or lower (almost no effect)),5 (Herbicidal ratio of 90% or more (almost completely withered)),0 (Herbicidal ratio of 5% or lower (almost no effect)),5 (Herbicidal ratio of 90% or more (almost completely withered)),5 (Herbicidal ratio of 90% or more (almost completely withered)),5 (Herbicidal ratio of 90% or more (almost completely withered)),2 (Herbicidal ratio of 20% or higher and lower than 40%),5 (Herbicidal ratio of 90% or more (almost completely withered)),5 (Herbicidal ratio of 90% or more (almost completely withered))
CON=C(C)CC1CC(OC(=O)N2CCCC2)=C(c2c(C)cc(C)cc2C)C1=O (stereo not shown) [1-150],0 (Herbicidal ratio of 5% or lower (almost no effect)),3 (Herbicidal ratio of 40% or higher and lower than 70%),5 (Herbicidal ratio of 90% or more (almost completely withered)),0 (Herbicidal ratio of 5% or lower (almost no effect)),5 (Herbicidal ratio of 90% or more (almost completely withered)),0 (Herbicidal ratio of 5% or lower (almost no effect)),4 (Herbicidal ratio of 70% or higher and lower than 90%),0 (Herbicidal ratio of 5% or lower (almost no effect)),5 (Herbicidal ratio of 90% or more (almost completely withered)),5 (Herbicidal ratio of 90% or more (almost completely withered)),1 (Herbicidal ratio of 5% or higher and lower than 20%),0 (Herbicidal ratio of 5% or lower (almost no effect)),5 (Herbicidal ratio of 90% or more (almost completely withered)),0 (Herbicidal ratio of 5% or lower (almost no effect))
